Test [1] deals with Prostaglandin E2 receptor EP2 subtype (Homo sapiens, UniProt P43116). The experiment in a line: Binding affinity was determined against prostanoid EP2 receptor.
Test [2] addresses T1, Prostaglandin E2 receptor EP3 subtype (Homo sapiens, UniProt P43115).
T1 sequence (P43115 whole entry): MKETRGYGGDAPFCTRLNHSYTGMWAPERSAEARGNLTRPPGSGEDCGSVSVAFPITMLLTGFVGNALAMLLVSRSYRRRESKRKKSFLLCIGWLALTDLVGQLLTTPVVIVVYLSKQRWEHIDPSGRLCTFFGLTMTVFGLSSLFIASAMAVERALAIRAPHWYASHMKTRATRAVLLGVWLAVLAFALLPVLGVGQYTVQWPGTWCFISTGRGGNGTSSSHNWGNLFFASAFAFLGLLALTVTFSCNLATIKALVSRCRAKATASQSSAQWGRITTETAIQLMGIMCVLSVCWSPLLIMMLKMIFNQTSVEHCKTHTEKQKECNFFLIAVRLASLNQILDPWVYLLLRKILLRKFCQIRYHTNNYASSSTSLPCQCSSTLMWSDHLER
Nature of the test: Binding affinity was determined against prostanoid EP3 receptor.

In test [3] the target is T2, Prostaglandin E2 receptor EP4 subtype (Homo sapiens, UniProt P35408). The experiment in a line: Agonist activity against recombinant prostanoid EP4 receptor stably transfected in CHO cells. Type of test: functional, cell-based.
The target of test [4] is T3, Prostaglandin E2 receptor EP1 subtype (Homo sapiens, UniProt P34995).
T3 sequence (P34995 whole entry): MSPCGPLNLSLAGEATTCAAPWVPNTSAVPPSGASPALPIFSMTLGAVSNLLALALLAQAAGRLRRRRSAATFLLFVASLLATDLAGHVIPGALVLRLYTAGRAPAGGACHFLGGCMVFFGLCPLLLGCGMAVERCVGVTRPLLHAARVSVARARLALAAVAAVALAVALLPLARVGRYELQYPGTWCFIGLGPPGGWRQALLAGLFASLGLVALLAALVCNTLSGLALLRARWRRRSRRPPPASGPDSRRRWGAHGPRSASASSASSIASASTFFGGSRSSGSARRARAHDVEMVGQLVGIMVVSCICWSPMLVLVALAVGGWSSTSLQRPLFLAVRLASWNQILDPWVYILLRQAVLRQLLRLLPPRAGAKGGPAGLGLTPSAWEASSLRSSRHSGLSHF
Nature of the test: Binding affinity was determined against prostanoid EP1 receptor.

For test [5], the target named is T2, Prostaglandin E2 receptor EP4 subtype. The experiment in a line: Binding affinity was determined against prostanoid EP4 receptor.

Prostaglandin E2 receptor EP2 subtype, sequence (P43116 whole entry): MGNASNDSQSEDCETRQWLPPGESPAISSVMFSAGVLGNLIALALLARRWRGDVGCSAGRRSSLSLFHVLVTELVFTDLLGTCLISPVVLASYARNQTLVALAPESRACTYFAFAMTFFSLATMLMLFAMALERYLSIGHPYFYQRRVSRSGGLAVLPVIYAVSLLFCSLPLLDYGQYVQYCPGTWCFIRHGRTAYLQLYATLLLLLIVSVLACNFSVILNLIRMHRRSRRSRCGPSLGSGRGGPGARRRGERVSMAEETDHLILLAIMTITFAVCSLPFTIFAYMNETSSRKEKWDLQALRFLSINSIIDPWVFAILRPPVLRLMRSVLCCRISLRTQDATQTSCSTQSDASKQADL
T2 sequence (P35408 whole entry): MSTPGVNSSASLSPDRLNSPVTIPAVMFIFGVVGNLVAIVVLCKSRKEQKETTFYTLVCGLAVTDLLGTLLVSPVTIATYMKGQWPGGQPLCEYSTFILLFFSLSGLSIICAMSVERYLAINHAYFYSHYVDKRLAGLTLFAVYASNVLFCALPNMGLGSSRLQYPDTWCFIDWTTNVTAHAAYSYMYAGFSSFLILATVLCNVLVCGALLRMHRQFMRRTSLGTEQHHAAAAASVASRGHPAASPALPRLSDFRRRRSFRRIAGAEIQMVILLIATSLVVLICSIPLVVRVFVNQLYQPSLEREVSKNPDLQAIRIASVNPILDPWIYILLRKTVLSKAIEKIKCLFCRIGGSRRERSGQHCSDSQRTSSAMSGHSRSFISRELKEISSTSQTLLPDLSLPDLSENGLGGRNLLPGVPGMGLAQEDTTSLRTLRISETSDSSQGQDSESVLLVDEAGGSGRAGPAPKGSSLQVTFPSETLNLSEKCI

For orientation: Ki means a measure of affinity in units of concentration, obtained from inhibition or displacement. A higher Ki goes with a looser hold on the target. In the case of `O=C(O)CCCCCCN1C(=O)CC[C@@H]1/C=C/C(O)Cc1ccccc1` (some centres not stated), the Ki in test [1] worked out at 31 µM; in test [2], 100 µM.
The term EC50 denotes the concentration giving half of the maximal effect. For the molecule `O=C(O)CCCCCCN1C(=O)CC[C@@H]1/C=C/C(O)C1(c2ccccc2)CC1` (some centres not stated), the results for the inhibitory constant (Ki) in test [1], in test [4] and in test [2] were 164 µM, 28 µM and 20 µM, respectively. For the same molecule, the EC50 in test [3] is 0.18 µM.
Regarding `O=C(O)CCCCCCN1C(=O)CC[C@@H]1/C=C/C(O)c1cccc(Oc2ccccc2)c1` (some centres not stated), the EC50 in test [3] is 0.085 µM. The Ki in test [5] is 0.032 µM; in test [4] it was 50 µM; in test [2], more than 100 µM.
With `O=C(O)CCCCCCN1C(=O)CC[C@@H]1CC[C@@H](O)c1cccc(C(F)(F)F)c1`, the EC50 in test [3] came to 0.13 µM. The inhibition constant (Ki) was 0.0074 µM in test [5] and 12 µM in test [2].
Turning to `CCCCC[C@H](O)/C=C/[C@@H]1CCC(=O)N1CCCCCCC(=O)O`, the 50% effective concentration (EC50) in test [3] was more than 100 µM.
Consider `Cc1cc(O)ccc1-c1cccc([C@H](O)CC[C@H]2CCC(=O)N2CCCCCCC(=O)O)c1`, for which the Ki in test [1] is 26 µM; in test [5], 0.0082 µM; in test [2], more than 100 µM. The EC50 in test [3] came to 0.015 µM.
For the molecule `O=C(O)CCCCCCN1C(=O)CC[C@@H]1/C=C/C(O)c1ccccc1` (some centres not stated), the figures for the Ki in test [1] and in test [5] were 41 µM and 2.3 µM, respectively. In test [3], the EC50 is more than 10 µM.
For `O=C(O)CCCCCCN1C(=O)CC[C@@H]1/C=C/C(O)c1cccc(-c2ccccc2Cl)c1` (some centres not stated), the figures for the inhibitory constant (Ki) in test [1], in test [5] and in test [2] were 42 µM, 0.0062 µM and more than 100 µM, respectively. Further, in test [3], the EC50 was determined as 0.04 µM.
The matching figures for `Cc1cc(Cl)ccc1-c1cccc(C(O)/C=C/[C@H]2CCC(=O)N2CCCCCCC(=O)O)c1` (some centres not stated): more than 100 µM, 0.0031 µM, 38 µM and 0.0008 µM.
Take `O=C(O)CCCCCCN1C(=O)CC[C@@H]1/C=C/C(O)c1ccccc1-c1ccccc1` (some centres not stated): in test [3], the EC50 is 42 µM.
In the case of `O=C(O)CCCCCCN1C(=O)CC[C@@H]1/C=C/[C@@H](O)CC1CCC1`, the Ki was more than 100 µM in test [1], 0.0042 µM in test [5] and 56 µM in test [2]. Moreover, the EC50 in test [3] is 0.2 µM.
`O=C(O)CCCCCCN1C(=O)CC[C@@H]1/C=C/C(O)c1cccc(C(F)(F)F)c1` (some centres not stated): the Ki in test [1] stood at 68 µM; in test [5], 0.14 µM; in test [2], 131 µM. For the same molecule, the EC50 in test [3] came out at 0.5 µM.
As for `CCCCC[C@H](O)/C=C/[C@H]1CCC(=O)N1CCCCCCC(=O)O`, the inhibitory constant (Ki) was 4.5 µM in test [1], 0.0045 µM in test [5], more than 100 µM in test [4] and 3 µM in test [2]. The EC50 in test [3] was 0.056 µM.
Take `O=C(O)CCCCCCN1C(=O)CC[C@@H]1/C=C/[C@@H](O)CC1CCCCC1`: the values for the Ki in test [1], in test [5] and in test [2] were 71 µM, 0.0075 µM and 16 µM, respectively. Also, the EC50 in test [3] was found to be 0.12 µM.
On to `CCCCC[C@@H](O)/C=C/[C@H]1CCC(=O)N1CCCCCCC(=O)O`, for which the EC50 in test [3] amounted to 6.1 µM.
As to `O=C(O)CCCCCCN1C(=O)CC[C@@H]1/C=C/C(O)Cc1cccc(C(F)(F)F)c1` (some centres not stated), the EC50 in test [3] was determined as 0.017 µM. Moreover, the inhibitory constant (Ki) in test [4] was more than 100 µM; in test [2], 12 µM.
Take `Cc1cc(O)ccc1-c1cccc(C(O)/C=C/[C@H]2CCC(=O)N2CCCCCCC(=O)O)c1` (some centres not stated): the values for the Ki in test [1], in test [5] and in test [2] were more than 100 µM, 0.0049 µM and more than 100 µM, respectively. Further, the EC50 in test [3] was determined as 0.013 µM.
As to `O=C(O)CCCCCCN1C(=O)CC[C@@H]1/C=C/[C@@H](O)Cc1cccc(C(F)(F)F)c1`, the inhibitory constant (Ki) in test [1] is 29 µM; in test [5], 0.0016 µM; in test [4], more than 100 µM; in test [2], 13 µM. Besides, the EC50 in test [3] was determined as 0.012 µM.
Turning to `CCCCC[C@@H](O)/C=C/[C@@H]1CCC(=O)N1CCCCCCC(=O)O`, the EC50 in test [3] was found to be 200 µM.
On to `O=C(O)CCCCCCN1C(=O)CC[C@@H]1/C=C/C(O)c1ccc(C(F)(F)F)o1` (some centres not stated), for which the results for the Ki in test [1], in test [5] and in test [2] were 58 µM, 0.01 µM and 4.9 µM, respectively. The EC50 in test [3] was 0.04 µM.
For the molecule `O=C(O)CCCCCCN1C(=O)CC[C@@H]1CC[C@@H](O)Cc1cccc(C(F)(F)F)c1`, the results for the Ki in test [1], in test [5] and in test [2] were 22 µM, 0.016 µM and 38 µM, respectively. Moreover, in test [3], the EC50 stood at 0.46 µM.
Taken in the same sequence, the figures for `O=C(O)CCCCCCN1C(=O)CC[C@@H]1/C=C/C(O)c1cccc(-c2ccc(Cl)cc2)c1` (some centres not stated) were 4.2 µM, 0.39 µM, more than 100 µM and 0.05 µM.
As to `O=C(O)CCCCCCN1C(=O)CC[C@@H]1CCC(=O)c1cccc(C(F)(F)F)c1`, the 50% effective concentration (EC50) in test [3] was more than 10 µM.
In the case of `O=C(O)CCCCCCN1C(=O)CC[C@@H]1/C=C/C(O)c1cccc(-c2ccccc2)c1` (some centres not stated), the values for the Ki in test [1], in test [5] and in test [2] were 32 µM, 0.36 µM and more than 100 µM, respectively. The EC50 in test [3] was determined as 0.36 µM.
Take `O=C(O)CCCCCCN1C(=O)CC[C@@H]1/C=C/C(O)c1cccc(-c2cccc(Cl)c2)c1` (some centres not stated): the figures for the Ki in test [1], in test [5] and in test [2] were 85 µM, 0.42 µM and more than 100 µM, respectively. Besides, in test [3], the EC50 turned out to be 0.17 µM.

For the origin of these results see ChEMBL document CHEMBL1137967, “Lactams as EP4 prostanoid receptor subtype selective agonists. Part 1: 2-Pyrrolidinones-stereochemical and lower side-chain optimization” (Bioorg Med Chem Lett, 2004).
